The source of these data is PubChem BioAssay AID1259407 (Chemical Carcinogenesis Research Information System (CCRIS), 2018).

Activity calls are given as the source filed them. No rule for the calls is given here.

The data set has as its system CCRIS mutagenicity, Ames/micronucleus/aberration tests. Put plainly: CCRIS mutagenicity studies.
[1] abbreviates: Test System: AMES SALMONELLA TYPHIMURIUM, Strain/Indicator: TA98, Metabolic Activation: NONE, Method: STANDARD PLATE.
Where [2] appears, read: Test System: AMES SALMONELLA TYPHIMURIUM, Strain/Indicator: TA100, Metabolic Activation: NONE, Method: STANDARD PLATE.
Where [3] appears, read: Test System: AMES SALMONELLA TYPHIMURIUM, Strain/Indicator: TA1535, Metabolic Activation: NONE, Method: STANDARD PLATE.
Where [4] appears, read: Test System: AMES SALMONELLA TYPHIMURIUM, Strain/Indicator: TA1537, Metabolic Activation: NONE, Method: STANDARD PLATE.
The mark [5] stands for this setting: Test System: AMES SALMONELLA TYPHIMURIUM, Strain/Indicator: TA100, Metabolic Activation: RAT, LIVER, S-9, AROCLOR 1254, Method: STANDARD PLATE.

For `CN(OC(=O)c1ccccc1)c1ccc(N=Nc2ccccc2)cc1`, the mutagenic call reads like this: (Test System: AMES SALMONELLA TYPHIMURIUM, Strain/Indicator: TA98, Metabolic Activation: RAT, LIVER, S-9, KC500 OR PHENOBARBITAL, Method: LIQUID SUSPENSION) “active; positive”; (Test System: AMES SALMONELLA TYPHIMURIUM, Strain/Indicator: TA100, Metabolic Activation: RAT, LIVER, S-9, KC500 OR PHENOBARBITAL, Method: LIQUID SUSPENSION) “active; positive”.
Consider `CC1=C2C(=CO[C@H](C)[C@H]2C)C(=O)C(C(=O)O)=C1O`, for which the mutagenic call is “active; positive (structural changes)” (End Point: In vivo chromosomal aberrations, Test System: Bone marrow cells, Species: Mouse, Strain/Sex: Balb/C / Male, Route: Intraperitoneal); “inactive; negative” (Test System: AMES SALMONELLA TYPHIMURIUM, Strain/Indicator: TA97, Metabolic Activation: NONE, Method: STANDARD PLATE); “inactive; negative” (Test System: AMES SALMONELLA TYPHIMURIUM, Strain/Indicator: TA97, Metabolic Activation: RAT LIVER S-9, AROCLOR 1254, Method: STANDARD PLATE); “inactive; negative” under setting [1]; “inactive; negative” (Test System: AMES SALMONELLA TYPHIMURIUM, Strain/Indicator: TA98, Metabolic Activation: RAT LIVER S-9, AROCLOR 1254, Method: STANDARD PLATE); “inactive; negative” (Test System: AMES SALMONELLA TYPHIMURIUM, Strain/Indicator: TA100, Metabolic Activation: NONE, Method: PREINCUBATION). The mutagenic call reads like this: under setting [2], “inactive; negative”; (Test System: AMES SALMONELLA TYPHIMURIUM, Strain/Indicator: TA100, Metabolic Activation: RAT LIVER S-9, AROCLOR 1254, Method: STANDARD PLATE) “inactive; negative”; (Test System: AMES SALMONELLA TYPHIMURIUM, Strain/Indicator: TA100, Metabolic Activation: RAT, LIVER, S-9, PHENOBARBITAL, Method: PREINCUBATION) “inactive; negative”; (Test System: AMES SALMONELLA TYPHIMURIUM, Strain/Indicator: TA102, Metabolic Activation: NONE, Method: STANDARD PLATE) “inactive; negative”; (Test System: AMES SALMONELLA TYPHIMURIUM, Strain/Indicator: TA102, Metabolic Activation: RAT, LIVER, S-9, AROCLOR 1254, Method: STANDARD PLATE) “inactive; negative”; under setting [3], “inactive; negative”. The mutagenic call is “inactive; negative” (Test System: AMES SALMONELLA TYPHIMURIUM, Strain/Indicator: TA1535, Metabolic Activation: RAT LIVER S-9, AROCLOR 1254, Method: STANDARD PLATE); “inactive; negative” under setting [4]; “inactive; negative” (Test System: AMES SALMONELLA TYPHIMURIUM, Strain/Indicator: TA1537, Metabolic Activation: RAT LIVER S-9, AROCLOR 1254, Method: STANDARD PLATE).
Take `CN1C(=O)CN=C(c2ccccc2F)c2cc([N+](=O)[O-])ccc21`: the mutagenic call is, setting by setting: under setting [2], “active; positive”; under setting [5], “active; positive”.
For `O=[N+]([O-])c1ccc(Oc2ccc(Cl)cc2Cl)cc1`, the mutagenic call reads like this: (Test System: AMES SALMONELLA TYPHIMURIUM, Strain/Indicator: TA98, Metabolic Activation: S-9, Method: STANDARD PLATE) “inactive; negative”; under setting [2], “active; positive”; (Test System: AMES SALMONELLA TYPHIMURIUM, Strain/Indicator: TA100, Metabolic Activation: S-9, Method: STANDARD PLATE) “inactive; negative”; (Test System: AMES SALMONELLA TYPHIMURIUM, Strain/Indicator: TA100, Metabolic Activation: S-9 MIX, Method: STANDARD PLATE) “active; positive”; (Test System: AMES SALMONELLA TYPHIMURIUM, Strain/Indicator: YG1021, Metabolic Activation: S-9, Method: STANDARD PLATE) “inactive; negative”; (Test System: AMES SALMONELLA TYPHIMURIUM, Strain/Indicator: YG1024, Metabolic Activation: S-9, Method: STANDARD PLATE) “inactive; negative”. In addition, the mutagenic call (Test System: AMES SALMONELLA TYPHIMURIUM, Strain/Indicator: YG1026, Metabolic Activation: S-9, Method: STANDARD PLATE) is “active; positive”; the mutagenic call (Test System: AMES SALMONELLA TYPHIMURIUM, Strain/Indicator: YG1029, Metabolic Activation: S-9, Method: STANDARD PLATE) was “active; positive”; the mutagenic call (Test System: E. COLI, Strain/Indicator: WP2 UVRA, Metabolic Activation: HAMSTER, LIVER, S-9, AROCLOR 1254, Method: STANDARD PLATE) is “inactive; negative”; the mutagenic call (Test System: E. COLI, Strain/Indicator: WP2 UVRA, Metabolic Activation: HAMSTER, LIVER, S-9, Method: STANDARD PLATE) was “inactive; negative”; the mutagenic call (Test System: E. COLI, Strain/Indicator: WP2 UVRA, Metabolic Activation: MOUSE, LIVER, S-9, AROCLOR 1254, Method: STANDARD PLATE) is “inactive; negative”; the mutagenic call (Test System: E. COLI, Strain/Indicator: WP2 UVRA, Metabolic Activation: MOUSE, LIVER, S-9, Method: STANDARD PLATE) was “inactive; negative”. Further, the mutagenic call by setting is: (Test System: E. COLI, Strain/Indicator: WP2 UVRA, Metabolic Activation: NONE, Method: STANDARD PLATE) “inactive; negative”; (Test System: E. COLI, Strain/Indicator: WP2 UVRA, Metabolic Activation: RAT, LIVER, S-9, AROCLOR 1254, Method: STANDARD PLATE) “inactive; negative”; (Test System: E. COLI, Strain/Indicator: WP2 UVRA, Metabolic Activation: RAT, LIVER, S-9, Method: STANDARD PLATE) “inactive; negative”; (Test System: MOUSE LYMPHOMA, Strain/Indicator: L5178Y (HPRT), Metabolic Activation: NONE, Method: SUSPENSION/PLATE) “inactive; negative”; (Test System: MOUSE LYMPHOMA, Strain/Indicator: L5178Y (TK+/TK-), Metabolic Activation: NONE, Method: SUSPENSION/PLATE) “inactive; negative”.
Regarding `Nc1c(C(=O)O)cc([N+](=O)[O-])c2c1C(=O)c1ccccc1C2=O`, the mutagenic call runs as follows: under setting [1], “active; positive”; (Test System: AMES SALMONELLA TYPHIMURIUM, Strain/Indicator: TA98, Metabolic Activation: RAT, LIVER, S-9, AROCLOR 1254, Method: STANDARD PLATE) “active; positive”; under setting [2], “active; positive”; under setting [5], “active; positive”; under setting [3], “inactive; negative”; under setting [4], “active; positive”. Besides, the mutagenic call is “active; positive” (Test System: AMES SALMONELLA TYPHIMURIUM, Strain/Indicator: TA1537, Metabolic Activation: RAT, LIVER, S-9, AROCLOR 1254, Method: STANDARD PLATE); “active; positive” (Test System: AMES SALMONELLA TYPHIMURIUM, Strain/Indicator: TA1538, Metabolic Activation: NONE, Method: STANDARD PLATE); “active; positive” (Test System: AMES SALMONELLA TYPHIMURIUM, Strain/Indicator: TA1538, Metabolic Activation: RAT, LIVER, S-9, AROCLOR 1254, Method: STANDARD PLATE); “active; positive” (Test System: AMES SALMONELLA TYPHIMURIUM, Strain/Indicator: TA1978, Metabolic Activation: NONE, Method: STANDARD PLATE).
Turning to `Cc1ccc(S(=O)(=O)Oc2ccc(N=Nc3ccc(-c4ccc(N=Nc5c(S(=O)(=O)O)cc6cc(S(=O)(=O)O)ccc6c5O)cc4C)c(C)c3)cc2)cc1`, for the setting “Test System: AMES SALMONELLA TYPHIMURIUM, Strain/Indicator: TA98, Metabolic Activation: HAMSTER, LIVER, S-9, Method: PREINCUBATION (PRIVAL METHOD)”, the mutagenic call was “inactive; negative”.
